Laboratory results taken from patent US8211897B2, “Inhibitors of cathepsin B” (ViroBay, Inc., priority 2008, dated 2012).

Tests used:
[1] = molecular target: T1, Human Liver Cathepsin B (Homo sapiens, UniProt P07858); assay: Biochemical assay of inhibition of Cathepsin B enzymatic activity; settings: 20 uM Boc-Leu-Arg-Arg-AMC, pH 5.5, 15 minutes preincubation, 30 minutes at 25° C.
T1 construct: from tissue; host or cells: human liver
Description: The test compound of Formula (I) was dissolved in dimethylsulfoxide (DMSO) and diluted in assay buffer. An 8 point dose response curve was completed in order to evaluate the IC50 value of inhibition of Cathepsin B enzymatic activity (IC50 is defined as the concentration which inhibited 50% of maximal enzyme activity). The assay protocol was adapted from Barrett, 1980. Human Liver Cathepsin B was incubated in assay buffer (50 mM sodium acetate, pH 5.5, 1 mM dithiothreitol (DTT), 2 mM ethylenediaminetetraacetic acid (EDTA) with 20 uM peptide substrate (Boc-Leu-Arg-Arg-AMC) with the compounds diluted from DMSO stocks or DMSO vehicle alone. Final DMSO concentration was retained at 1% in the assay. The test compound was preincubated with the enzyme for 15 minutes at 25° C. Reaction was started with the addition of substrate, and allowed to proceed for 30 minutes at 25° C. Substrate cleavage was monitored with spectrofluorimetric quantitation of methylcoumarylamide (AMC).

[2] = tested on: Liver fibrosis induced in mice by carbon tetrachloride; assay: Carbon tetrachloride-induced liver fibrosis model; type: in vivo; settings: CCl4 fibrosis, once daily from day 12, 250 mg/kg and 50 mg/kg, terminal day 33
Description: Liver fibrosis was induced in mice by intraperitoneal administration of carbon tetrachloride every 5 days over a 28-day period (days 0-28). On day 11, plasma alanine aminotransferase (ALT) levels and aspertate aminotransferase (AST) were measured from representative mice to confirm liver damage. (2S,4R)-1-((S)-(3-tert-butylureido)-3,3-dimethylbutanoyl]-N-((S)-1-cyclopropylamino)-1,2-dioxohexan-3-yl)-4-(7-methoxy-2-(1H-pyrazol-1-yl)-quinolin-4-yloxy)pyrrolidine-2-carboxamide was administered therapeutically, once daily, starting on day 12, […]. On day 33, terminal plasma AST and ALT, liver hydroxyproline, PK/PD, and histology were assessed.

[3] = molecular target: T2, Cathepsin B in human cells (HUVECs) (Homo sapiens, UniProt P07858); assay: Cellular activity-based probe (whole-cell enzyme occupancy) assay; settings: serum-free media, 4 hours compound treatment, 125I-DMK probe 1 hour
T2 construct: endogenous in cells; host or cells: HUVEC (human umbilical vein endothelial cells)
Description: Activity of Cathepsin B in cells was measured with the use of an activity-based radioactive probe in a whole-cell enzyme occupancy assay. This method was used to determine the specific potencies of compounds on Cathepsin B in the intracellular environment. The probe used was a peptide diazomethylketone which binds to Cathepsins, including Cathepsin B, potently and irreversibly. This cell-permeable probe binds to active Cathepsin B and binding can be quantified to determine the level of Cathepsin B activity in cells. Cathepsin B enzyme in cells which has bound to an inhibitor is not active and as such not available for binding by the activity-based probe.
The method used was based on a modification of a published method (Falgueyret J-P, et al. 2004. Anal. Biochem. 335:218-227). Human umbilical vein endothelial cells (HUVECs) were grown in 24 well plates in standard growth conditions. […]
To analyze probe-labeled proteins, samples were boiled for 5 minutes and analyzed by SDS-PAGE. […] The band intensities on the autoradiographs were determined. Autoradiographs were scanned using a Microtek ScanMakeri900 scanner and bands quantified with a program such as the BioRad Imaging program QuantityOne or ImageJ. Compound potencies were calculated as a % of the no inhibitor control and IC50 values were extrapolated from the dose-response curves using a suitable program like GraphPad Prism.

Row | IC50 [1] [nM] | SMILES | other results
1 | 86 | CCC[C@H](NC(=O)[C@@H]1CC(Oc2cc(-c3ccccn3)nc3ccsc23)CN1C(=O)[C@@H](NC(=O)NC(C)(C)C)C(C)(C)C)C(=O)C(=O)NC1CC1 (stereo partly shown) | –
2 | 83 | CCC[C@H](NC(=O)[C@@H]1CC(Oc2cc(-n3cccn3)nc3cc(OC)ccc23)CN1C(=O)[C@@H](NC(=O)NCC1CC1)C(C)(C)C)C(=O)C(=O)NC1CC1 (stereo partly shown) | –
3 | 61 | CCC[C@H](NC(=O)[C@@H]1C[C@@H](Oc2cc(-n3cccn3)nc3cc(OC)ccc23)CN1C(=O)[C@@H](NC(=O)NCC(C)(C)C)C(C)(C)C)C(=O)C(=O)NC1CC1 [(2S,4R)-N-((S)-1-(cyclopropylamino)-1,2-dioxohexan-3-yl)-1-((S)-3,3-dimethyl-2-(3-neopentylureido)butanoyl)-4-(7-methoxy-2-(1H-pyrazol-1-yl)quinolin-4-yloxy)pyrrolidine-2-carboxamide] | –
4 | < 500 | CCC[C@H](NC(=O)[C@@H]1CC(Oc2cc(-n3cccn3)nc3cc(OC)ccc23)CN1C(=O)[C@@H](NC(=O)NC(C)(C)C)C(C)(C)C)C(=O)C(=O)NC1CC1 (stereo partly shown) [Example 1] | liver hydroxyproline [2]: decreased; plasma ALT [2]: decreased; plasma AST [2]: decreased; IC50 [3]: 24 nM
5 | < 500 | COc1ccc2c(O[C@@H]3C[C@@H](C(=O)N[C@@H](CC4CCC4)C(=O)C(=O)NC4CC4)N(C(=O)[C@@H](NC(=O)NC(C)(C)C)C(C)(C)C)C3)cc(-n3cccn3)nc2c1 [Example 2, (2S,4R)-1-((S)-(3-tert-butylureido)-3,3-dimethylbutanoyl]-N-((S)-1-cyclobutyl-4-(cyclopropylamino)-3,4-dioxobutan-2-yl)-4-(7-methoxy-2-(1H-pyrazol-1-yl)-quinolin-4-yloxy)pyrrolidine-2-carboxamide] | liver hydroxyproline [2]: reduces; plasma ALT [2]: reduces; plasma AST [2]: reduces; IC50 [3]: 19 nM
6 | 27 | CCC[C@H](NC(=O)[C@@H]1C[C@@H](Oc2nccc3cc(OC)ccc23)CN1C(=O)[C@@H](NC(=O)NC(C)(C)C)C(C)(C)C)C(=O)C(=O)NC1CC1 [Example 9] | –
7 | 56 | COc1ccc2c(O[C@@H]3C[C@@H](C(=O)N[C@@H](CC4CC4)C(=O)C(=O)NC4CC4)N(C(=O)[C@@H](NC(=O)NC(C)(C)C)C(C)(C)C)C3)nccc2c1 [Example 10, (2S,4R)-1-((S)-2-(3-tert-Butylureido)-3,3-dimethylbutanoyl)-N-((S)-1-cyclopropyl-4-(cyclopropylamino)-3,4-dioxobutan-2-yl)-4-(6-methoxyisoquinolin-1-yloxy)-pyrrolidine-2-carboxamide] | –
8 | 49 | CCOc1ccc2c(O[C@@H]3C[C@@H](C(=O)N[C@@H](CC4CC4)C(=O)C(=O)NC4CC4)N(C(=O)[C@@H](NC(=O)NC(C)(C)C)C(C)(C)C)C3)nccc2c1 [Example 11, (2S,4R)-1-((S)-2-(3-tert-Butylureido)-3,3-dimethylbutanoyl)-N-((S)-1-cyclopropyl-4-(cyclopropylamino)-3,4-dioxobutan-2-yl)-4-(6-ethoxyisoquinolin-1-yloxy)-pyrrolidine-2-carboxamide] | –
9 | 45 | CCC[C@H](NC(=O)[C@@H]1C[C@@H](Oc2nccc3cc(OCC)ccc23)CN1C(=O)[C@@H](NC(=O)NC(C)(C)C)C(C)(C)C)C(=O)C(=O)NC1CC1 [Example 12, (2S,4R)-1-((S)-2-(3-tert-Butylureido)-3,3-dimethylbutanoyl)-N-((S)-1-(cyclopropylamino)-1,2-dioxohexan-3-yl)-4-(6-ethoxyisoquinolin-1-yloxy)-pyrrolidine-2-carboxamide] | –
10 | 28 | CCCC[C@H](NC(=O)[C@@H]1CC(Oc2nccc3cc(OC)ccc23)CN1C(=O)[C@@H](NC(=O)NC(C)(C)C)C(C)(C)C)C(=O)C(=O)NC1CC1 (stereo partly shown) [Example 13] | –
11 | 32 | CCC[C@H](NC(=O)[C@@H]1C[C@@H](Oc2nc(C)cc3cc(OC)ccc23)CN1C(=O)[C@@H](NC(=O)NC(C)(C)C)C(C)(C)C)C(=O)C(=O)NC1CC1 [Example 15, (2S,4R)-1-((S)-2-(3-tert-butylureido)-3,3-dimethylbutanoyl)-N-((S)-1-(cyclopropylamino)-1,2-dioxohexan-3-yl)-4-(6-methoxy-3-methylisoquinolin-1-yloxy)pyrrolidine-2-carboxamide] | –
12 | 45 | CCC[C@H](NC(=O)[C@@H]1C[C@@H](Oc2nc(-c3ccccn3)nc3sccc23)CN1C(=O)[C@@H](NC(=O)NC(C)(C)C)C(C)(C)C)C(=O)C(=O)NC1CC1 [Example 16, (2S,4R)-1-((S)-2-(3-tert-butylureido)-3,3-dimethylbutanoyl)-N-((S)-1-(cyclopropylamino)-1,2-dioxohexan-3-yl)-4-(2-(pyridin-2-yl)thieno[2,3-d]pyrimidin-4-yloxy)pyrrolidine-2-carboxamide] | –
13 | 33 | CCC[C@H](NC(=O)[C@@H]1C[C@@H](Oc2nc(-c3ccccn3)nc3ccsc23)CN1C(=O)[C@@H](NC(=O)NC(C)(C)C)C(C)(C)C)C(=O)C(=O)NC1CC1 [Example 17, (2S,4R)-1-((S)-2-(3-tert-butylureido)-3,3-dimethylbutanoyl)-N-((S)-1-(cyclopropylamino)-1,2-dioxohexan-3-yl)-4-(2-(pyridin-2-yl)thieno[3,2-d]pyrimidin-4-yloxy)pyrrolidine-2-carboxamide] | –
14 | 72 | CCC[C@H](NC(=O)[C@@H]1C[C@@H](Oc2nc(-c3cc(C)nn3C)nc3ccsc23)CN1C(=O)[C@@H](NC(=O)NC(C)(C)C)C(C)(C)C)C(=O)C(=O)NC1CC1 [Example 18, (2S,4R)-1-((S)-2-(3-tert-butylureido)-3,3-dimethylbutanoyl)-N-((S)-1-(cyclopropylamino)-1,2-dioxohexan-3-yl)-4-(2-(1,3-dimethyl-1H-pyrazol-5-yl)thieno[3,2-d]pyrimidin-4-yloxy)pyrrolidine-2-carboxamide] | –
